Experimental data from patent US20230181681A1, “PEPTIDE FOR SUPPRESSING CORONAVIRUS AND USE THEREOF” (priority 2020, published 2023).
Ends that are not written are not given here.

Tests used:
HCoV-OC43 [1] = assay: HCoV-OC43 S and N protein production in infected Vero cells (Western blotting, confocal microscopy); assay type: cell-based; settings: 0.1 MOI, peptide 6 hours after infection, 48 h, FIGS. 20 to 22
MERS-CoV = assay type: cell-based
SARS-CoV-2 = assay type: cell-based
HCoV-OC43 [2] = assay: HCoV-OC43 production in Vero cells by plaque formation assay; assay type: cell-based; settings: 0.1 MOI, 2 μM peptide 6 hours after infection, 48 hours, plaque formation test, FIG. 23
[3] = system: interaction of MERS-CoV Spike CD with MERS-CoV N protein; assay type: binding
MERS-CoV N protein = assay type: binding

## CCTGCGTSCFKKCGGCCDDYTGYQELVIKTSHDD [Spike CD-OC43]
HCoV-OC43 [1]
  production of S protein and N protein of HCoV-OC43: no effect was observed

## NH2-d-RRRRRRRRRR-AQARRKNYGQLDIFP-COOH [R-CP-1]
MERS-CoV
  MERS-CoV plaque formation: no effect was observed
SARS-CoV-2
  reduction of SARS-CoV-2 production: 40%

## R-Spike CD-OC43 (RRRRRRRRRCCTGCGTSCFKKCGGCCDDYTGYQELVIKTSHDD; not fully specified; cysteine pairing not given here)
HCoV-OC43 [2]
  reduction of HCoV-OC43 production: 20%

## TGCGTNCMGKLKCNRC [Spike CD-F]
[3]
  relative activity in inhibiting the interaction between Spike CD-Full and N protein: highest activity
MERS-CoV N protein
  binding of Spike CD peptides with N protein: can tightly bind with N protein
